Laboratory results published in paper PMC8007833, “Insights into Acinetobacter baumannii fatty acid synthesis 3-oxoacyl-ACP reductases” (Scientific Reports, 2021).

How the values were obtained:
[1] = target: T1, HMwFabG (ABO12488.2) (Acinetobacter baumannii, UniProt A0A219C8F5); assay: coenzyme oxidation, absorbance at […] nm; format: biochemical; conditions: 200 µM NADH, 500 µM acetoacetyl-CoA, 20 mM HEPES pH 7.4, 125 mM NaCl, 37 °C, 30 min
T1 construct: gene fabG_9; codon-optimised gene in pMCSG21, E. coli BL21(DE3) pLysS; N-terminal 6-His tag cut by TEV; 463 residues, 48 kDa protomer, homodimer
T1 sequence (A0A219C8F5 1-463): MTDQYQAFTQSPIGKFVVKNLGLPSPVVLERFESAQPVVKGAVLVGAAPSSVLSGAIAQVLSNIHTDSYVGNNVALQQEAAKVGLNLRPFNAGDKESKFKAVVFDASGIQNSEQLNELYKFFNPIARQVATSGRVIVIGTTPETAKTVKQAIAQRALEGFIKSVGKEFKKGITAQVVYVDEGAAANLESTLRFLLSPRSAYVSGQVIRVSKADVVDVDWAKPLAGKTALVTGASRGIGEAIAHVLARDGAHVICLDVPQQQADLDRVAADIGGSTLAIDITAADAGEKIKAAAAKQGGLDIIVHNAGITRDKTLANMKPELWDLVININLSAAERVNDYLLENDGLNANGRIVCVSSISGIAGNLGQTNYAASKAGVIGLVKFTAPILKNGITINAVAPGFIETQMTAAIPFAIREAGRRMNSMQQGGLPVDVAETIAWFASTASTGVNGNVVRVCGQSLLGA

[2] = target: T2, FabG (ABO11256.2) (Acinetobacter baumannii, UniProt V5VHN7); assay: X-ray crystal structure of co-crystal, […] Å; format: binding; conditions: co-crystallised at 1:10 protein to coenzyme, 0.1 M Tris pH 8.0, 2 M ammonium sulphate; coenzyme site
T2 construct: codon-optimised gene in pMCSG21, E. coli BL21(DE3) pLysS; N-terminal 6-His tag cut by TEV; 244 residues, 26 kDa protomer, homotetramer about 100 kDa
T2 sequence (V5VHN7 1-244): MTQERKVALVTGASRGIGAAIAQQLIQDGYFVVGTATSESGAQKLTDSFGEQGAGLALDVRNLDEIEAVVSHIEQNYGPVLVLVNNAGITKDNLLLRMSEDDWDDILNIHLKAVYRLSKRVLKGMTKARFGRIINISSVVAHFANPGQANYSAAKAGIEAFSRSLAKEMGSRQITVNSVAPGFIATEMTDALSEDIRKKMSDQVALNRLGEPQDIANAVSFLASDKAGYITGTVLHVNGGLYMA

[3] = target: T2, FabG (ABO11256.2); assay: coenzyme oxidation, absorbance at […] nm; format: biochemical; conditions: 500 µM acetoacetyl-CoA, 200 µM NADPH, 20 mM HEPES pH 7.4, 125 mM NaCl, 37 °C, 30 min

Row | SMILES | coenzyme oxidation, absorbance at 340 nm [1] | X-ray crystal structure of co-crystal, 1.85 Å [2] | coenzyme oxidation, absorbance at 340 nm [3]
1 | NC(=O)C1=CN([C@@H]2O[C@H](COP(=O)(O)OP(=O)(O)OC[C@H]3O[C@@H](n4cnc5c(N)ncnc54)[C@H](O)[C@@H]3O)[C@@H](O)[C@H]2O)C=CC1 [NADH] | Our enzyme assays showed clear preference for NADH as the catalytic coenzyme |  | 
2 | NC(=O)C1=CN([C@@H]2O[C@H](COP(=O)(O)OP(=O)(O)OC[C@H]3O[C@@H](n4cnc5c(N)ncnc54)[C@H](OP(=O)(O)O)[C@@H]3O)[C@@H](O)[C@H]2O)C=CC1 [NADPH] |  | strong positive density allowing NADPH to be modelled within each protomer | 
3 | CC(=O)CC(=O)SCCNC(=O)CCNC(=O)[C@H](O)C(C)(C)COP(=O)(O)OP(=O)(O)OC[C@H]1O[C@@H](n2cnc3c(N)ncnc32)[C@H](O)[C@@H]1OP(=O)(O)O [acetoacetyl-CoA] | Enzyme activity of HMwFabG with acetoacetyl-CoA |  | enzyme assays were conducted in the presence of a substrate mimic, acetoacetyl-CoA
